# According to patent US20080300298A1, “Honokiol Derivates For the Treatment of Proliferative Disorders” (priority 2005, published 2008):
# Legend:
# MM.1S cells = experiment: TUNEL assay; assay type: cell-based, human; conditions: 10 ug/ml, 48 h
# Experimental: (§1) Assessment of HNK-induced cytotoxicity against patient MM cells: […] A CD38^high fraction enriched for MM cells was determined in side and forward scatter panel in each case. The expression of CD138 on gated cells was also evaluated. After HNK-treatment for 48 h, cells were harvested and percentage of CD38^high cells with or without HNK-treatment was evaluated. Cell cycle analysis: MM cells cultured with HNK were harvested, fixed with 70% ethanol, and pretreated with 250 μg/mL of RNAse (Sigma, St Louis, Mo.). Cells were stained with propidium iodide (PI; 50 μg/mL; Sigma, St Louis, Mo.), and cell cycle profile was determined by using the program M software on an EPICS XL flow cytometer (Beckman Coulter, Hialeah, Fla.). […] Fluorescence intensity of TUNEL and APO 2.7 staining was determined using on EPICS XL flow cytometer. Cytotoxicity was determined by trypan blue exclusion assay. […] Cell growth and induction of apoptosis were determined both by colorimetric assay and now cytometric detection of APO2.7 after 48 h treatment. […] Proliferation of MM cells was then assessed by [^3H]-thymidine uptake. […] DNA synthesis was measured by [^3H]-thymidine uptake. […] Angiogenesis assay: The anti-angiogenic effect of HNK was determined using an In Vitro Angiogenesis Assay Kit (Chemicon, Temecula, Calif.). […] After 6 h, tube formation by endothelial cells was evaluated. […]
# RPM18226 cells = experiment: TUNEL assay; assay type: cell-based, human; conditions: RPM18226, 10 ug/ml, 48 h
# Experimental: as §1
# rat papillary muscles = experiment: glucose uptake by insulin
smiles,measurement,setting,value
"C=CCc1ccc(O)c(-c2ccc(O)c(CC=C)c2)c1 [HNK, Honokiol]",TUNEL positive cells,MM.1S cells,38.2%
same,TUNEL positive cells,RPM18226 cells,41.5%
same,glucose uptake by insulin,rat papillary muscles,potentiates glucose uptake by insulin
